According to US6447749B1, “Perfluoro-alkyl containing dye molecules and galencial formulations” (Schering Aktiengesellschaft, priority 1999, dated 2002):

Assays:
regional lymph nodes [1] = assay: Coloring of regional lymph nodes after interstitial administration; format: in vivo; settings: guinea pig; formulation 5 mol % of dye 8/95 mol % Gd complex; after interstitial/intracutaneous administration, lymph nodes prepared ex vivo; listed as 8, sodium salt
Protocol: After the interstitial near-infrared lymphography was completed, the regional lymph nodes were prepared in the area of the administration site. […] This coloring can be used for the intraoperative diagnosis for the identification of the draining lymph nodes of a certain tissue area and for differentiating the lymph nodes from the surrounding tissue.

[2] = Photophysical characterization: absorption maxima and extinction coefficients (Lambda 2-spectrometer); format: physicochemical
Protocol: (§1) The determination of the absorption maxima and extinction coefficients was carried out with a Lambda 2-spectrometer (Perkin-Elmer Company). The fluorescence properties were determined on a SPEX-fluorolog (Instruments S. A. Company, photomultiplier Hamamatsu PM928, excitation 350W xenon lamp). the determination of the fluorescence quantum yield was carried out relative to indocyanine green (O=13% in DMSO) by excitation at 585 nm (dyes with p=2) or 685 nm (dyes with p=3), in each case of solutions of concentration 2 μM in dye, and correction with the spectral sensitivity of lamp and detector.

[3] = Photophysical characterization: fluorescence properties and fluorescence quantum yield (SPEX-fluorolog, relative to indocyanine green); format: physicochemical
Protocol: as §1

lymph nodes [4] = assay: Fluorescence coloring of lymph nodes after interstitial administration (monosaccharide formulation); format: in vivo; settings: 5 mol % of dye 8 and 95 mol % mannopyranosyl perfluoroalkyl amide
Protocol: From the substance, 0.1 ml of a solution that contained 1 mmol/L of dye 8 and 19 mmol/L of 6-[1-O-α-D-mannopyranosyl]-hexanoic acid N-(3-oxa-1H,1H,2H,2H,4H,4H,5H,5H-perfluorotridecyl)-amide was administered interstitially in a skin fold between the toes of the right rear extremity of the animal. Five hours after administration, the lymph nodes of the right and left sides of the body were prepared, and a fluorescence image was recorded. The fluorescence of the substances was stimulated by irradiation of the lymph nodes with near-infrared light of wavelength 740 nm, which was produced with an Nd:YAG laser. The fluorescence radiation was detected at a wavelength of >800 nm by an intensified CCD-camera, and the fluorescence images were stored digitally.

lymph nodes [5] = assay: Visualization of lymph nodes in situ after interstitial administration; format: in vivo, rat; settings: five hours after interstitial administration
Protocol: 0.1 ml of a formulation that contained 1 mmol/L of dye 8 and 19 mmol/L of 6-[1-O-α-D-mannopyranosyl)-hexanoic acid N-(3-oxa-1H,1H,2H,2H,4H,4H,5H,5H-perfluorotridecyl)-amide was administered interstitially in a skin fold between the toes of the right rear extremity. Five hours after administration, the test animal was sacrificed and opened abdominally. Based on the fluorescence image, the lymph nodes can be localized in situ and the lymph tracts can be visualized. […] The fluorescence of the substances was stimulated by irradiation of the abdominally-opened animal with near-infrared light of wavelength 740 nm, which was produced with an Nd:YAG laser. The fluorescence radiation was detected at a wavelength of >800 nm by an intensified CCD-camera, and the fluorescence images were stored digitally.

regional lymph nodes [6] = assay: Interstitial near-infrared lymphography of guinea pigs; format: in vivo; settings: guinea pig, formulation 5 mol % of dye 8/95 mol % Gd complex, interstitial/intracutaneous, 0.3 μmol/kg of 8
Protocol: The imaging properties of the formulations according to the invention were studied in vivo in guinea pigs. […] The fluorescence of the substances was stimulated by irradiation of the animals with near-infrared light of wavelength 740 nm, which was produced with an Nd:YAG laser. The fluorescence radiation was detected at a wavelength of >800 nm by an intensified CCD-camera, and the fluorescence images were stored digitally.
0.1 ml of a stock solution with 1 mmol/L of 8 was injected into a skin fold between the toes of the right rear extremity, and the final concentration was 0.3 μmol/kg of 8.

lymph nodes [7] = assay: Fluorescence coloring of lymph nodes after intravenous administration; format: in vivo; settings: rat; 5 hours after intravenous administration; 0.2 ml of 0.5 mmol/L dye 8 and 9.5 mmol/L Gd complex; excitation 740 nm, detection >800 nm
Protocol: From the substance, 0.2 ml of a solution that contained 0.5 mmol/L of dye 8 and 9.5 mmol/L of 10-[1-methyl-2-oxo-3-aza-5-oxo-5-{4-perfluorooctylsulfonyl-piperazin-1-yl}-pentyl]-1,4,7-tris(carboxymethyl)-1,4,7,10-tetraazacyclododecane, was administered intravenously in a caudal vein of the rat. Five hours after administration, the lymph nodes were prepared and a fluorescence image was recorded. The fluorescence of the substances was stimulated by irradiation of the lymph nodes with near-infrared light of wavelength 740 nm, which was produced with an Nd:YAG laser. The fluorescence radiation was detected at a wavelength of >800 nm by an intensified CCD-camera, and the fluorescence images were stored digitally.

[8] = dyes 7-14 table, formulation with Gd-complex perfluoroalkyl derivative (WO 97/26017 Ex. 33), 5 mol % of dye
[9] = formulation with Gd-complex perfluoroalkyl derivative (WO 97/26017 Ex. 33), 1 mol % of dye
[10] = formulation with Gd-complex perfluoroalkyl derivative (WO 97/26017 Ex. 33), 2 mol % of dye
[11] = formulation with Gd-complex perfluoroalkyl derivative (WO 97/26017 Ex. 33), 5 mol % of dye
[12] = formulation with Gd-complex perfluoroalkyl derivative (WO 97/26017 Ex. 33), 10 mol % of dye
[13] = three-component formulation: 5 mol % of dye, 0 mol % of Gd complex, 95 mol % of monosaccharide
[14] = three-component formulation: 5 mol % of dye, 10 mol % of Gd complex, 85 mol % of monosaccharide
[15] = three-component formulation: 5 mol % of dye, 30 mol % of Gd complex, 65 mol % of monosaccharide
[16] = three-component formulation: 5 mol % of dye, 50 mol % of Gd complex, 45 mol % of monosaccharide
[17] = three-component formulation: 5 mol % of dye, 70 mol % of Gd complex, 25 mol % of monosaccharide
[18] = three-component formulation: 5 mol % of dye, 90 mol % of Gd complex, 5 mol % of monosaccharide
[19] = five hours after interstitial administration (right rear extremity)

For CC1(C)C(=CC=CC=CC=CC2=[N+](CCCCS(=O)(=O)[O-])c3ccc(C(=O)N(CCOCCC(F)(F)C(F)(F)C(F)(F)C(F)(F)C(F)(F)C(F)(F)C(F)(F)C(F)(F)F)CC(O)CO)cc3C2(C)C)N(CCCCS(=O)(=O)[O-])c2ccccc21.[Na+] (centres unmarked) [Dye 10, 5-{N-[2-(3,3,4,4,5,5,6,6,7,7,8,8,9,9,10,10,10-heptadecafluorodecyloxy)ethyl]-N-(2,3-dihydroxypropyl)aminocarbonyl}-2-{7-[1,3-dihydro-3,3-dimethyl-1-(4-sulfobutyl)-2H-indol-2-ylidene]-1,3,5-heptatrienyl}-3,3-dimethyl-1-(4-sulfobutyl)-3H-indolium, internal salt, sodium salt], the “coloring of regional (inguinal) lymph nodes” value (regional lymph nodes [1]) was “clearly visible green-coloring”, the Absorption max. [2, 8] was 753 nm and the Extinction coefficient [2, 8] was 120,800 L mol^−1 cm^−1. For the same compound, the Absorption max. [2, 9] was 755 nm, the Extinction coefficient [2, 9] was 150,500 L mol^−1 cm^−1 and the Absorption max. [2, 10] was 755 nm. For the same compound, the Extinction coefficient [2, 10] was 148,800 L mol^−1 cm^−1, the Absorption max. [2, 11] was 753 nm and the Extinction coefficient [2, 11] was 120,800 L mol^−1 cm^−1. The Absorption max. [2, 12] was 751 nm, the Extinction coefficient [2, 12] was 108,500 L mol^−1 cm^−1 and the Absorption maximum [2, 13] was 760 nm. For the same compound, the Extinction coefficient [2, 13] was 90500 L/mol/cm, the Absorption maximum [2, 14] was 760 nm and the Extinction coefficient [2, 14] was 102700 L/mol/cm. The Absorption maximum [2, 15] was 760 nm, the Extinction coefficient [2, 15] was 107900 L/mol/cm and the Absorption maximum [2, 16] was 756 nm. For the same compound, the Extinction coefficient [2, 16] was 108700 L/mol/cm, the Absorption maximum [2, 17] was 756 nm and the Extinction coefficient [2, 17] was 111100 L/mol/cm. It also gave an Absorption maximum [2, 18] of 755 nm, an Extinction coefficient [2, 18] of 112500 L/mol/cm and a Fluorescence max. [3, 8] of 788 nm. It also gave a Fluorescence quantum yield ([3]; dyes 7-14 table, formulation with Gd-complex perfluoroalkyl derivative (WO 97/26017 Ex. 33), 5 mol % of dye, 2 μM in dye) of 0.14, a Fluorescence max. [3, 9] of 784 nm and a Fluorescence quantum yield ([3]; formulation with Gd-complex perfluoroalkyl derivative (WO 97/26017 Ex. 33), 1 mol % of dye, 2 μM in dye) of 0.23. For the same compound, the Fluorescence max. [3, 10] was 785 nm, the Fluorescence quantum yield ([3]; formulation with Gd-complex perfluoroalkyl derivative (WO 97/26017 Ex. 33), 2 mol % of dye, 2 μM in dye) was 0.23 and the Fluorescence max. [3, 11] was 788 nm. The Fluorescence quantum yield ([3]; formulation with Gd-complex perfluoroalkyl derivative (WO 97/26017 Ex. 33), 5 mol % of dye, 2 μM in dye) was 0.14, the Fluorescence max. [3, 12] was 790 nm and the Fluorescence quantum yield ([3]; formulation with Gd-complex perfluoroalkyl derivative (WO 97/26017 Ex. 33), 10 mol % of dye, 2 μM in dye) was 0.03. It also gave a Fluorescence maximum [3, 13] of 800 nm, a Fluorescence quantum yield [3, 13] of 0.16 and a Fluorescence maximum [3, 14] of 800 nm. The Fluorescence quantum yield [3, 14] was 0.11, the Fluorescence maximum [3, 15] was 800 nm and the Fluorescence quantum yield [3, 15] was 0.14. It also gave a Fluorescence maximum [3, 16] of 798 nm, a Fluorescence quantum yield [3, 16] of 0.26 and a Fluorescence maximum [3, 17] of 794 nm. For the same compound, the Fluorescence quantum yield [3, 17] was 0.18, the Fluorescence maximum [3, 18] was 793 nm and the Fluorescence quantum yield [3, 18] was 0.13. The “fluorescence signal of lymph nodes, left side of the body” value (lymph nodes [4]; [19]) was “no lymph nodes of the left side of the body”, the “fluorescence signal of lymph nodes, right (administered) side of the body” value (lymph nodes [4]; [19]) was “Most lymph nodes of the right (administered) side of the body showed a fluorescence signal” and the “coloring of the fluorescence-labeled lymph nodes” value (lymph nodes [4]; five hours after interstitial administration) was “greenish-colored”. For the same compound, the “visualization of lymph nodes and lymph tract in situ by fluorescence” value (lymph nodes [5]; abdominally-opened rat, 0.1 ml of 1 mmol/L dye 8 and 19 mmol/L mannopyranosyl perfluoroalkyl amide) was “visualized based on a fluorescence signal”, the “visual coloring of lymph nodes in situ” value (lymph nodes [5]; rat, 5 mol % of dye 8 and 95 mol % mannopyranosyl perfluoroalkyl amide) was “green coloring” and the “fluorescence signal at the injection site” value (regional lymph nodes [6]; abdominal view, 120 minutes after administration) was “strong fluorescence signal”. The “fluorescence signal at the injection site” value (regional lymph nodes [6]; right lateral view, 117 minutes after administration) was “strong fluorescence signal” and the “fluorescence signal of axillary, inguinal and popliteal lymph nodes” value (lymph nodes [7]) was “All lymph nodes showed a clear fluorescence signal”.
